Test results reported in patent US10640514B2, “Polymorph of DPPIV inhibitor maleate and preparation method therefor” (SHANGHAI INSTITUTE OF MATERIA MEDICA, CHINESE ACADEMY OF …, priority 2016, dated 2020).

Key:
[1] = Hygroscopicity analysis (DVS); type: physicochemical; details: range of conventional storage humidity, 25° C.
Method: Dynamic vapor absorption (DVS) test/water absorption test rapidly measures the increase and loss of the moisture in the sample caused by flow carrier gas with set relative humidity (RH), wherein the sample is placed on a digital microbalance with high sensitivity and high stability at a self-suspension state, and then the adsorption/desorption of water vapor is measured by measuring the increase/decrease of mass of the material, thereby determining the hygroscopicity of the sample.
In the present invention, the test parameters of the DVS are as follows: Instrument type: SMS DVS Intrinsic; Non-hydrate: 0 to 95%-0% RH; Temperature: 25° C.; Hydrate: 40 to 95%-0% RH; Temperature: 25° C.

[2] = molecular target: DPP IV (Homo sapiens, UniProt P27487); assay: DPP IV inhibitory activity and selectivity in vitro; type: biochemical
Sequence of DPP IV (Homo sapiens, UniProt P27487) (P27487 whole entry, species assumed): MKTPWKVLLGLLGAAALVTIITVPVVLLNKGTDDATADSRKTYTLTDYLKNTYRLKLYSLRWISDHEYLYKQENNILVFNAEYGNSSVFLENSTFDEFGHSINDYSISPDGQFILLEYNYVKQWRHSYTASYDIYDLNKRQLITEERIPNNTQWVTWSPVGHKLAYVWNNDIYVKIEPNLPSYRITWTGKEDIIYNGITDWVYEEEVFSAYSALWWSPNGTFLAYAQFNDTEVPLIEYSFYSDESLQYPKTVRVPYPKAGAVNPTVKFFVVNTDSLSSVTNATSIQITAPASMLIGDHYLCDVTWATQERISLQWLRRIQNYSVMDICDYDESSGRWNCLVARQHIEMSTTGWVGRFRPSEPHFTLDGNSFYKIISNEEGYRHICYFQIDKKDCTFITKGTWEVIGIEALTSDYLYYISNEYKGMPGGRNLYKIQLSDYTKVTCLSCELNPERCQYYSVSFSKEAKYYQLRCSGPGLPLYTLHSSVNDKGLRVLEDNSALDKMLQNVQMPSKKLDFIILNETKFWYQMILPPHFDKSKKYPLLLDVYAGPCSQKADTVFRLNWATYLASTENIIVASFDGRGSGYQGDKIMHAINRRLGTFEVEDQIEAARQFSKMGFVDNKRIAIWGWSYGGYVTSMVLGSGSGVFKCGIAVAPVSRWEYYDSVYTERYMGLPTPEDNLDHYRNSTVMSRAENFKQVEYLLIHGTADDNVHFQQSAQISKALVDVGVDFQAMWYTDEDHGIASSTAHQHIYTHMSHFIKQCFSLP

[3] = molecular target: T1, DPP IV (Mus musculus, UniProt P28843); assay: Inhibition of DPP IV activity in normal mouse plasma; type: in vivo
T1 construct: from tissue; host or cells: normal mouse plasma
T1 sequence (P28843 37-760 limits assumed): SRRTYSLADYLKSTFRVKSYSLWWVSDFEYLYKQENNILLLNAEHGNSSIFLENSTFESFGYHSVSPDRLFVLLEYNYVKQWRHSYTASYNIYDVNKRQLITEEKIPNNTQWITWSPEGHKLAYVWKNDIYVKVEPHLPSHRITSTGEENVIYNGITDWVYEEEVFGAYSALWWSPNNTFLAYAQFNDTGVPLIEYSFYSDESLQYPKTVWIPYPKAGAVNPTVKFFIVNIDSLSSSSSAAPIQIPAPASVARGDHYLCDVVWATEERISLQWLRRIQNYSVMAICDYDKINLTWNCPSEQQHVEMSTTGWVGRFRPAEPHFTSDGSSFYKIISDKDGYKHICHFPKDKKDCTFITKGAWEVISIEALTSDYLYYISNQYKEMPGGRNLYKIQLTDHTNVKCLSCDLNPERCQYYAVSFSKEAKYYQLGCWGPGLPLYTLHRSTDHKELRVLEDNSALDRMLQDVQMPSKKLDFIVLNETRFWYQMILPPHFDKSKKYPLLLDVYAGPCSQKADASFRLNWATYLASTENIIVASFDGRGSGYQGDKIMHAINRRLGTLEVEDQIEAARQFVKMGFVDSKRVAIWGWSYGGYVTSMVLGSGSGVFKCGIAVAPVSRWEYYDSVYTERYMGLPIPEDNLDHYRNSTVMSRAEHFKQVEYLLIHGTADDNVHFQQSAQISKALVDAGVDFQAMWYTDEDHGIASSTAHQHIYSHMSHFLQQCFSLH

[4] = molecular target: T2, DPP IV (Rattus norvegicus, UniProt P14740); assay: Inhibition of DPP IV activity in normal rat plasma; type: in vivo
T2 construct: from tissue; host or cells: normal rat plasma
T2 sequence (P14740 37-767 limits assumed): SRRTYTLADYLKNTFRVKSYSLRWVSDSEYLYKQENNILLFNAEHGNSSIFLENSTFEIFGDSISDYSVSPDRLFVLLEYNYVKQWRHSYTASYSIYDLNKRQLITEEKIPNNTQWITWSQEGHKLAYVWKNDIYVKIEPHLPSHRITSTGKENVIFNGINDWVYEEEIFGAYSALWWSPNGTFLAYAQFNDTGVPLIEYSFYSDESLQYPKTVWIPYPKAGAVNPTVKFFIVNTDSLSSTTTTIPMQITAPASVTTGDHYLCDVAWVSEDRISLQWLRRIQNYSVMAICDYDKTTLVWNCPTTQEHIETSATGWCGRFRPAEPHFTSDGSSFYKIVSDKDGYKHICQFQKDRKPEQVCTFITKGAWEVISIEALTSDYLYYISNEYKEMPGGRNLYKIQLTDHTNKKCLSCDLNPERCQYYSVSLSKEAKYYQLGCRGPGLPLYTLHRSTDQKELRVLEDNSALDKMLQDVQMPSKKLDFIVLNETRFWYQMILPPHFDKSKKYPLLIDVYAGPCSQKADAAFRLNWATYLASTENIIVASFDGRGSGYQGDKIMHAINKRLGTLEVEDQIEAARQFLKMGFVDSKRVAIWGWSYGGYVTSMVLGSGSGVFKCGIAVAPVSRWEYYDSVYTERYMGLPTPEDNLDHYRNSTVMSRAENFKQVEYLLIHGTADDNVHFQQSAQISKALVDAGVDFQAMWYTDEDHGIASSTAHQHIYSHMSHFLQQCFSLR

[5] = tested on: normal ICR mice; assay: Oral glucose tolerance in normal ICR mice; type: in vivo
[6] = tested on: ob/ob mice; assay: Fasting blood glucose of ob/ob mice, chronic administration; type: in vivo
[7] = tested on: db/db mice; assay: Fasting blood glucose of gene-deficient db/db mice, chronic administration; type: in vivo
[8] = Pharmacokinetics in rats; type: in vivo
[9] = Pharmacokinetics in dogs; type: in vivo
[10] = tested on: ICR mice; assay: Acute toxicity test of ICR mice; type: in vivo; details: 300 mg/kg administration group
[11] = versus sitagliptin and vildagliptin

## COC(=O)c1cc2nc(N3CCC[C@@H](N)C3)n(Cc3ccccc3C#N)c(=O)c2s1.O=C(O)/C=C\C(=O)O [crystal form A, (R)-methyl-2-(3-aminopiperidin-1-yl)-3-(2-cyanobenzyl)-4-carbonyl-3,4-dihydrothiophene[3,2-d]pyrimidine-6-carboxylic acid maleate]
[1]
  hygroscopicity, variation range (DVS): less than 2.0%

## COC(=O)c1cc2nc(N3CCC[C@@H](N)C3)n(Cc3ccccc3C#N)c(=O)c2s1 [compound of formula I, (R)-methyl-2-(3-aminopiperidin-1-yl)-3-(2-cyanobenzyl)-4-carbonyl-3,4-dihydrothiophene[3,2-d]pyrimidine-6-carboxylic acid]
[2]
  mode of DPP IV inhibition: selective, reversible competitive inhibitor
[2]; in vitro
  DPP IV inhibitory activity: nanomolar level
[2]; [11]
  DPP IV inhibitory activity in vitro compared with marketed drugs: superior to the marketed drugs sitagliptin and vildagliptin
  DPP IV selectivity in vitro compared with marketed drugs: superior to the marketed drugs sitagliptin and vildagliptin
[3]
  inhibition of DPP IV activity in plasma: effective in inhibiting DPP IV activity
  plasma DPP IV inhibitory activity compared with alogliptin: superior to the marketed drug alogliptin
[4]
  inhibition of DPP IV activity in plasma: effective in inhibiting DPP IV activity
  plasma DPP IV inhibitory activity compared with alogliptin: superior to the marketed drug alogliptin
[5]
  effect on oral glucose tolerance compared with alogliptin: superior to that of alogliptin
  onset dose for increase of oral glucose tolerance: 0.1 mg/kg
[5]; dose-dependent manner
  oral glucose tolerance: increase oral glucose tolerance
[6]
  fasting blood glucose: effectively reduce fasting blood glucose
  fasting blood glucose reduction compared with alogliptin: superior to positive control drug alogliptin
[7]
  fasting blood glucose: reduce its fasting blood glucose
  fasting blood glucose reduction compared with alogliptin: comparable to positive control drug alogliptin
[8]
  AUC0-t compared with alogliptin: superior to those of the marketed drug alogliptin
  half-life compared with alogliptin: superior to those of the marketed drug alogliptin
[9]
  AUC0-t compared with alogliptin: superior to those of the marketed drug alogliptin
  half-life compared with alogliptin: superior to those of the marketed drug alogliptin
[10]
  animal death in acute toxicity test: no animal dies
